According to patent US6008226A, “Substituted N-arylmethyl and heterocylylmethyl-1H-pyrazolo[3,4-b]quinolin-4-amines and compositions and methods of use thereof” (Sanofi-Synthelabo, priority 1998, dated 1999):
Counter-ions that a name gives are not always drawn.

Tests used:
cGMP-PDE V [1] = molecular target: T1, cGMP-PDE V (Homo sapiens, UniProt O76074); assay: c-GMP-PDE V inhibitory activity (cyclic nucleotide hydrolysis by isolated PDE isozymes); format: biochemical, various animal species and man; conditions: for inhibition at 10 µM: read-out: Percent Inhibition cGMP-PDE V
T1 construct: The cGMP-PDE and other PDE isozymes were isolated from cardiovascular tissues (heart and aorta); from tissue; host or cells: cardiovascular tissues (heart and aorta) of various animal species and man
Protocol: The cGMP-PDE and other PDE isozymes were isolated from cardiovascular tissues (heart and aorta) of various animal species and man by anion-exchange and affinity chromatography as described by Silver et al., Sec. Messeng. Phos. 13: 13-25, 1991; PDE activity, in the presence and absence of test compounds was determined essentially as described by Thompson et al., Adv. Cyclic Nucleotide Res. 10: 69-92. To determine the potency and selectivity of compounds as PDE inhibitors, compounds are screened for their effect on cyclic nucleotide hydrolysis at 10 μM. If ≥50% inhibition of PDE activity is observed, an IC50 value (concentration of compound causing 50% reduction in PDE activity) and corresponding 95% confidence intervals are generated. The IC50 values are calculated from concentration-response curves as described by Tallarida and Murray, Manual of Pharmacologic Calculations with Computer Programs, Procedure 8, Graded Dose-response, pp. 14-19, Springer-Verlag, New York, 1981.

[2] = system: Spontaneously hypertensive rats (SHR); assay: antihypertensive activity in conscious spontaneously hypertensive rats (SHR), iv; format: in vivo, rat; conditions: for ED25: Rattus norvegicus, 5 min, iv, 5 minutes after each cumulative dose, read-out: SHR iv ED25, mean arterial pressure
Protocol: After a 2 day recovery from surgery, three baseline blood pressure measurements were made at 5 min intervals in conscious SHR. Compounds to be tested or vehicle were then administered intravenously in a dose-dependent manner (0.3-10 mg base/kg) while arterial pressure was recorded continuously on a polygraph. The mean arterial pressure response was measured 5 minutes after the administration of each dose of the test compound and the next dose given in a cumulative dose fashion. The response to each dose of the test compound was calculated as the difference from the mean of the three baseline measurements.

interferon = conditions: Crenshaw et al.; cited from earlier work
cGMP-PDE V [3] = molecular target: T1, cGMP-PDE V; assay: c-GMP-PDE V inhibitory activity (cyclic nucleotide hydrolysis by isolated PDE isozymes); format: biochemical, various animal species and man; conditions: read-out: Percent Inhibition cGMP-PDE V
[4] = system: Spontaneously hypertensive rats; assay: reversing or reducing nitrate-induced tolerance in spontaneously hypertensive rats; format: in vivo, rat
Protocol: Spontaneously hypertensive rats (17-25 weeks of age) are made nitroglycerin tolerant by repeated administration of high doses of nitroglycerin (100 mg/kg, s.c., 3 times/day for 3 consecutive days). To confirm tolerance challenge doses of nitroglycerin are administered intravenously at doses ranging from 1-300 μg/kg and the maximum change in mean arterial pressure (MAP) for each dose is recorded. Groups of tolerant rats are then pretreated with the compounds of the invention (tolerant pretreated group) or with vehicle (0.05 N NaOH) (tolerant vehicle pretreated group) intravenously 5-10 minutes prior to administration of challenge doses of nitroglycerin. The administration of challenge doses of nitroglycerin to non-tolerant rats (the non-tolerant group) causes a dose-dependent decrease in MAP of between 10 to 40 mm Hg. […] It is expected that the administration of challenge doses of nitroglycerin to tolerant rats which have been pretreated with the compounds of the invention (tolerant pretreated group) should result in varying degrees of restoration of the hypotensive response. The area under the dose-MAP curve is then calculated for the non-tolerant group and for the tolerant vehicle pretreated group and the tolerant pretreated group. The percent reversal of nitrate-inducedtolerance is then calculated as follows:
Percent Reversal=(AUCtol-pretreated -AUCtol-veh)/(AUCnontol […]

IC50 (cGMP-PDE V [1]) [nM]	inhibition at 1 µM (cGMP-PDE V [3]) [%]	inhibition at 10 µM (cGMP-PDE V [1]) [%]	SMILES	other results
210	–	–	CCn1ncc2c(NCc3ccccc3)c3ccccc3nc21 [1(a), 1-ethyl-N-(phenylmethyl)-1H-pyrazolo[3,4-b]quinolin-4-amine]	ED25 [2]: 25 mg/kg
–	–	–	CCn1ncc2c(NCc3ccco3)c3ccccc3nc21 [Example 16, 1-ethyl-N-(2-furanylmethyl)-1H-pyrazolo[3,4-b]quinolin-4-amine]	SHR iv % change in mean arterial pressure ([2]; 10 mg/kg iv): -16%
4200	–	–	CCn1ncc2c(NCCc3ccccc3)c3ccccc3nc21 [2(c), 1-ethyl-N-(phenylethyl)-1H-pyrazolo[3,4-b]quinoline-4 amine]	ED25 [2]: 16.5 mg/kg
1140	–	–	Cc1nn(C)c2nc3ccccc3c(NCc3ccccc3)c12 [Example 12(c), 1,3-dimethyl-N-(phenylmethyl)-1H-pyrazolo[3,4-b]quinolin-4-amine]	–
–	–	–	Cc1nn(C)c2nc3ccccc3c(NCc3ccccc3N(C)C)c12 [N-[[2-(dimethylamino)phenyl]methyl]-1,3-dimethyl-1H-pyrazolo[3,4-b] quinolin-4-amines]	activity in the interferon assay (interferon): inactive
–	–	–	Cc1nn(C)c2nc3ccccc3c(NCc3cccnc3)c12 [N-(3-pyridinylmethyl), N-(3-pyridinylmethyl)-1,3-dimethyl-1H-pyrazolo[3,4-b] quinolin-4-amine]	activity in the interferon assay (interferon): inactive
–	75	94	CCn1ncc2c(NC3CCc4ccccc43)c3ccccc3nc21 (stereo not shown) [Example 22, 1-ethyl-N-(1-indanyl)-1H-pyrazolo[3,4-b]quinolin-4-amine·CH3 SO3 H]	inhibition at 0.1 µM (cGMP-PDE V [3]): 34%
1260	–	–	CCn1ncc2c(N(C)Cc3ccccc3)c3ccccc3nc21 [Example 20, 1-ethyl-N-(methyl)-N-(phenylmethyl)-1H-pyrazolo[3,4-b]quinolin-4-amine·CH3 SO3 H]	–
450	–	–	CCn1ncc2c(NCc3cccc(OC)c3)c3ccccc3nc21 [Example 11, 1-ethyl-N-(3-methoxyphenylmethyl)-1H-pyrazolo[3,4-b]quinolin-4-amine]	–
86	–	–	CCn1ncc2c(NCc3cccc(O)c3)c3ccccc3nc21 [Example 14, 1-ethyl-N-(3-hydroxyphenylmethyl)-1H-pyrazolo[3,4-b]quinolin-4-amine·2 CH3 SO3 H]	–
–	50	85	CCn1ncc2c(NCc3ccccc3)c3ccc(O)cc3nc21 [Example 6, 1-ethyl-7-hydroxy-N-(phenylmethyl)-1H-pyrazolo[3,4-b]quinolin-4-amine]	inhibition at 0.1 µM (cGMP-PDE V [3]): 17%
–	58	97	CCn1ncc2c(NCc3ccccn3)c3ccccc3nc21 [Example 21, 1-ethyl-N-(2-pyridinylmethyl)-1H-pyrazolo[3,4-b]quinolin-4-amine-2CH3SO3 H]	inhibition at 0.1 µM (cGMP-PDE V [3]): 27%
–	–	–	O=[N+]([O-])OCC(CO[N+](=O)[O-])O[N+](=O)[O-] [nitroglycerin]	dose-dependent decrease in MAP ([4]; non-tolerant rats, nitroglycerin challenge 1-300 μg/kg iv): 10 to 40 mm Hg; hypotensive response to challenge doses of nitroglycerin ([4]; tolerant vehicle pretreated group, 1-300 μg/kg iv): significant reduction of the hypotensive response
–	–	–	Cc1nn(C)c2nc3ccccc3c(NC34CC5CC(CC(C5)C3)C4)c12 [N-tricyclo[3.3.1.1^3,7]dec-1-yl, N-tricyclo[3.3.1.1^3,7]dec-1-yl-1,3-dimethyl-1H-pyrazolo[3,4-b] quinolin-4-amine]	activity in the interferon assay (interferon): inactive
–	0	57	CCn1ncc2c(NCc3ccc(C#N)cc3)c3ccccc3nc21 [Example 10, 1-ethyl-N-(4-cyanophenylmethyl)-1H-pyrazolo[3,4-b]quinolin-4-amine]	–
–	20	34	CCn1ncc2c(NCc3ccc(OCCN4CCOCC4)cc3)c3ccccc3nc21 [15(c), 1-ethyl-N-[4-[2-(4-morpholinyl)ethoxy]phenylmethyl]-1H-pyrazolo[3,4-b]quinolin-4-amine]	inhibition at 0.1 µM (cGMP-PDE V [3]): 0%
170	–	–	CCn1nc(C)c2c(NCc3ccccc3)c3ccccc3nc21 [9(d), 1-ethyl-3-methyl-N-(phenylmethyl)-1H-pyrazolo[3,4-b]quinolin-4-amine·HCl]	–
–	43	75	CCn1ncc2c(NCc3cccnc3)c3ccccc3nc21 [Example 19, 1-ethyl-N-(3-pyridinylmethyl)-1H-pyrazolo[3,4-b]quinolin-4-amine ·2CH3 SO3 H]	inhibition at 0.1 µM (cGMP-PDE V [3]): 10%
14	–	–	CCn1ncc2c(NCc3ccc(OC)cc3)c3cc(OC)ccc3nc21 [23(c), 1-ethyl-6-methoxy-N-(4-methoxyphenylmethyl)-1H-pyrazolo[3,4-b]quinolin-4-amine·CH3 SO3 H]	SHR iv % change in mean arterial pressure ([2]; 1 mg/kg iv): -7%; SHR iv % change in mean arterial pressure ([2]; 3 mg/kg iv): -4%
180	–	–	CC(C)n1ncc2c(NCc3ccccc3)c3ccccc3nc21 [4(c), 1-isopropyl-N-(phenylmethyl)-1H-pyrazolo[3,4-b]quinolin-4-amine]	–
120	–	–	CCn1ncc2c(NCc3ccc(O)cc3)c3cc(O)ccc3nc21 [Example 24, 1-ethyl-6-hydroxy-N-(4-hydroxyphenylmethyl)-1H-pyrazolo[3,4-b]quinolin-4-amine-CH3 SO3 H]	SHR iv % change in mean arterial pressure ([2]; 1 mg/kg iv): -10%; SHR iv % change in mean arterial pressure ([2]; 3 mg/kg iv): -9%; SHR iv % change in mean arterial pressure ([2]; 10 mg/kg iv): -15%
–	82	78	CCn1ncc2c(NCc3ccc(O)cc3)c3ccccc3nc21 [18(b), 1-ethyl-N-(4-hydroxyphenylmethyl)-1H-pyrazolo[3,4-b]quinolin-4-amine]	inhibition at 0.1 µM (cGMP-PDE V [3]): 63%
91	–	–	CCn1ncc2c(NCc3ccc(O)cc3)c3ccccc3nc21 [18(a), 1-ethyl-N-(4-hydroxyphenylmethyl)-1H-pyrazolo[3,4-b]quinolin-4-amine CH3 SO3 H]	–
–	–	–	Cc1nn(C)c2nc3ccccc3c(NCCCNC34CC5CC(CC(C5)C3)C4)c12 [N-(1,3-dimethyl-1H-pyrazolo[3,4-b]quinolin-4-yl)-N'-tricyclo[3.3.1.1^3,7]dec-1-yl-1,3-propane diamine]	activity in the interferon assay (interferon): inactive
150	–	–	CCn1ncc2c(NCc3cccc(O)c3)c3ccccc3nc21 [Example 13, 1-ethyl-N-(3-hydroxyphenylmethyl)-1H-pyrazolo [3,4-b]quinolin-4-amine]	–
180	–	–	CCn1ncc2c(NCc3ccc(OC)c(OC)c3)c3ccccc3nc21 [Example 7, 1-ethyl-N-(3,4-dimethoxyphenylmethyl)-1H-pyrazolo[3,4-b]quinolin-4-amine]	–
89	–	–	CCn1ncc2c(NCc3ccc(OC)cc3)c3ccccc3nc21 [Example 3, 1-ethyl-N-(4-methoxyphenylmethyl)-1H-pyrazolo[3,4-b]quinolin-4-amine·HCl·1/2H2 O]	–
–	5	50	CCn1ncc2c(NCc3ccncc3)c3ccccc3nc21 [Example 8, 1-ethyl-N-(4-pyridinylmethyl)-1H-pyrazolo[3,4-b]quinolin-4-amine]	inhibition at 0.1 µM (cGMP-PDE V [3]): 0%
–	54	85	CCn1ncc2c(NCc3ccccc3)c3ccc(OC)cc3nc21 [5(e), 1-ethyl-7-methoxy-N-(phenylmethyl)-1H-pyrazolo[3,4-b]quinolin-4-amine]	inhibition at 0.1 µM (cGMP-PDE V [3]): 14%
–	–	–	Cc1nn(C)c2nc3ccccc3c(NC3CC3)c12 [N-cyclopropyl, N-cyclopropyl-1,3-dimethyl-1H-pyrazolo[3,4-b] quinolin-4-amine]	activity in the interferon assay (interferon): inactive
